Measurements taken from patent EP0413544A2, “Purine derivatives, process for their preparation, pharmaceutical compositions and intermediates” (Beecham Group p.l.c., priority 1989, dated 1991).
Like-named read-outs stand apart in the source and are kept apart here.

Assay: Blood concentration of E1 after oral dosing of the compounds to mice (HPLC)
Type: in vivo
Details: fasted female Balb/c mice, pooled blood of 3 mice
Procedure: Compounds were administered as single doses of 0.2mmole/kg in 0.1ml of 1% carboxymethyl cellulose by oral gavage to female Balb/c mice weighing 20g. Food was withheld from the mice for 18 hours prior to the start of the experiment. Blood was collected by cardiac puncture using heparinised syringes 15, 60 and 180 mins after dosing. Equal volumes (0.2ml) from 3 mice were pooled at each time point and 0.6ml of ice-cold ethanol was added. Following chilling at -20°C and centrifugation, 0.5ml of supernatant was dried under reduced pressure. The sample was then reconstituted with 0.5ml of 0.4M NH₄OAc (pH 6.0) and analysed by HPLC.

concentration (Expt. 1, 15 min after single oral gavage dose of 0.2mmole/kg in 1% carboxymethyl cellulose, read-out: 9-(3-Hydroxypropoxy)guanine (E1) conc. (µM) in blood at time (min) after dosing: 15): 5.2 µM
concentration (Expt. 1, 60 min after single oral gavage dose of 0.2mmole/kg in 1% carboxymethyl cellulose, read-out: 9-(3-Hydroxypropoxy)guanine (E1) conc. (µM) in blood at time (min) after dosing: 60): 2 µM
concentration (Expt. 2, 15 min after single oral gavage dose of 0.2mmole/kg in 1% carboxymethyl cellulose, read-out: 9-(3-Hydroxypropoxy)guanine (E1) conc. (µM) in blood at time (min) after dosing: 15): 11 µM
concentration at 1 h (mouse, 200 umol/kg, Expt. 2, 60 min after single oral gavage dose of 0.2mmole/kg in 1% carboxymethyl cellulose, read-out: 9-(3-Hydroxypropoxy)guanine (E1) conc. (µM) in blood at time (min) after dosing: 60): 3.3 µM
SMILES: Nc1nc(O)c2ncn(OCCCO)c2n1 [Example E1, 9-(3-hydroxyprop-1-oxy)guanine]
